Measured values reported in PMC7897990, “TriTOX: A novel Trichomonas vaginalis assay platform for high-throughput screening of compound libraries” (International Journal for Parasitology: Drugs and Drug …, 2021).
Read-outs that look alike come from different tables or passages of the source.

Experiments:
[1] = test system: nontumorigenic neonatal foreskin fibroblast (NFF) cell line
[2] = test system: Trichomonas vaginalis G3 trophozoites; test: microbe, parasite or virus in culture; conditions: 48 h
[3] = NFF fibroblasts, single concentration 5 µg/mL
[4] = read-out: T.vaginalis_%inb_Rep1
[5] = read-out: T.vaginalis_%inb_Rep2
[6] = NFF fibroblast screen at 5 µg/mL, A = active, I = inactive

SMILES	NFF_Activity [1, 3]	inhibition of growth at 1 µg/mL [2, 4]	inhibition of growth at 1 µg/mL [2, 5]	NFF_Activity [1, 6]	NFF_Activity [1]
CCCCCC1=C/C(=C/c2[nH]c(-c3ccc[nH]3)cc2OC)N=C1C [Prodigiosin]	I (otherwise these were reported as inactive (I))	9.63%	1.73%	–	–
CO/N=C1\C[C@]2(C[C@@H]3C[C@@H](C/C=C(\C)C[C@@H](C)/C=C/C=C4\CO[C@@H]5[C@H](O)C(C)=C[C@@H](C(=O)O3)[C@]45O)O2)O[C@H](/C(C)=C/C(C)C)[C@H]1C [Moxidectin]	I (otherwise these were reported as inactive (I))	9.23%	6.09%	–	–
C=C[C@]1(C)C[C@@H](OC(=O)CO)[C@]2(C)[C@H](C)CC[C@]3(CCC(=O)[C@H]32)[C@@H](C)[C@@H]1O [Pleuromutilin]	I (otherwise these were reported as inactive (I))	10.1%	11.7%	–	–
COc1cc(C(=O)O)c2c(c1C)OC(=O)c1c(C)cc(O)c(C=O)c1O2 [Psoromic acid]	I (otherwise these were reported as inactive (I))	13.9%	10.4%	–	–
CC(C)[C@@H]1NC(=O)[C@H](C)OC(=O)[C@@H](C(C)C)NC(=O)[C@@H](C(C)C)OC(=O)[C@H](C(C)C)NC(=O)[C@H](C)OC(=O)[C@@H](C(C)C)NC(=O)[C@@H](C(C)C)OC(=O)[C@H](C(C)C)NC(=O)[C@H](C)OC(=O)[C@@H](C(C)C)NC(=O)[C@@H](C(C)C)OC1=O [Valinomycin]	–	9.18%	12.2%	I (otherwise these were reported as inactive (I))	–
CC(C)(O)[C@H]1O[C@H]2CC[C@@]3(C)[C@@](O)(CC[C@H]4Cc5c([nH]c6ccccc56)[C@@]43C)C2=CC1=O [Paxilline]	I (otherwise these were reported as inactive (I))	10.1%	13.3%	–	–
CC1(C)C[C@]23[C@@H]4COC(=O)[C@H]2CC[C@H]1[C@@H]3CC4=O [Quadrone]	A (active (A) compounds having >25% inhibitory activity)	11.6%	11.6%	–	–
CO[C@@]12[C@H](COC(N)=O)C3=C(C(=O)C(C)=C(N)C3=O)N1C[C@@H]1N[C@@H]12 [Mitomycin C]	I (otherwise these were reported as inactive (I))	11.5%	3.72%	–	–
CC/C=C\[C@H](O)[C@H](O)C1=C(C)C(=O)[C@]2(O1)C(=O)N[C@@](OC)(C(=O)c1ccccc1)[C@@H]2O [Pseurotin A]	I (otherwise these were reported as inactive (I))	11.5%	11.5%	–	–
C=C1C[C@@]23C=CC(=O)[C@@](C)(CCC(=O)Nc4c(O)ccc(C(=O)O)c4O)[C@@H]2C[C@@H]1CC3 [Platencin]	I (otherwise these were reported as inactive (I))	11.3%	10.7%	–	–
C[C@H]1CCCC(=O)CCCCCc2cc(O)cc(O)c2C(=O)O1 [Zearalanone]	–	10.1%	14.6%	I (otherwise these were reported as inactive (I))	–
CC[C@H]1OC(=O)C[C@@H](O)[C@H](C)[C@@H](O[C@@H]2O[C@H](C)[C@@H](O)[C@H](N(C)C)[C@H]2O)[C@@H](CCN2C[C@H](C)C[C@H](C)C2)C[C@@H](C)C(=O)/C=C/C(C)=C/[C@@H]1CO[C@@H]1O[C@H](C)[C@@H](O)[C@@H](OC)[C@H]1OC [Tilmicosin]	–	2.41%	4.94%	I (otherwise these were reported as inactive (I))	–
C=C(NC(=O)c1csc(-c2nc3c(cc2O)-c2nc(cs2)C(=O)NC(C(C)O)C(=O)N/C(=C\C)c2nc(cs2)C(=O)NC2CC(O)C(=O)OCc4cccc5[nH]c(c(C)c45)C(=O)SCC(NC(=O)c4csc2n4)c2nc-3cs2)n1)C(N)=O (stereo not drawn) [Nosiheptide]	I (otherwise these were reported as inactive (I))	2.89%	6.03%	–	–
C=C(CC[C@]12O[C@H](C(=O)O)[C@@](O)(C(=O)O)[C@](C(=O)O)(O1)[C@H](OC(=O)/C=C/[C@@H](C)C[C@@H](C)CC)[C@H]2O)[C@@H](OC(C)=O)[C@H](C)Cc1ccccc1 [Zaragozic acid A]	–	9.75%	7.01%	I (otherwise these were reported as inactive (I))	–
CC(C)=C[C@H]1C[C@H](C)[C@]2(CC[C@]3(C)C[C@H]4[C@H](C(=O)C[C@@]4(C)O)/C(C=O)=C\C[C@H]32)O1 [Ophiobolin A]	A (active (A) compounds having >25% inhibitory activity)	14.2%	13%	–	–
COC[C@H]1OC(=O)c2coc3c2[C@@]1(C)C1=C(C3=O)[C@@H]2CCC(=O)[C@@]2(C)C[C@H]1OC(C)=O [Wortmannin]	–	7.97%	13.5%	I (otherwise these were reported as inactive (I))	–
O=C(O)c1c(-c2ccc[nH]2)[nH]c2ccccc2c1=O [Penicinoline]	I (otherwise these were reported as inactive (I))	13.9%	11%	–	–

SMILES	NFF_Activity [1, 3]	inhibition of growth at 1 µg/mL [2, 4]	inhibition of growth at 1 µg/mL [2, 5]	NFF_Activity [1, 6]	NFF_Activity [1]
CC12C[C@@]34C=CC(=O)[C@@](C)(CCC(=O)Nc5c(O)ccc(C(=O)O)c5O)C3[C@H](CC1C4)O2 (stereo partly drawn) [Platensimycin]	I (otherwise these were reported as inactive (I))	11.3%	10%	–	–
CN1C(=O)[C@]23C[C@@H]4C(C)(C)[C@@]5(C[C@@]41CN2CC[C@@]3(C)O)C(=O)Nc1c5ccc2c1OC=CC(C)(C)O2 [Paraherquamide A]	I (otherwise these were reported as inactive (I))	15.8%	15.5%	–	–
CCCCCCC(=O)CCCCCC/C=C/C[C@@H](O)[C@H](O)[C@@](N)(CO)C(=O)O [Myriocin]	I (otherwise these were reported as inactive (I))	10.9%	15.1%	–	–
O=C1Cc2ccccc2N1 [Oxindole]	I (otherwise these were reported as inactive (I))	12.2%	14.4%	–	–
C[C@@H]1Cc2c(Cl)cc(C(=O)N[C@@H](Cc3ccccc3)C(=O)O)c(O)c2C(=O)O1 [Ochratoxin A]	I (otherwise these were reported as inactive (I))	13%	11.6%	–	–
C=C(NC(=O)C(=C)NC(=O)c1csc(C2=N[C@@H]3c4csc(n4)[C@H]4NC(=O)c5csc(n5)[C@H]([C@](C)(O)[C@@H](C)O)NC(=O)[C@H]5CSC(=N5)/C(=C/C)NC(=O)[C@H]([C@@H](C)O)NC(=O)c5csc(n5)[C@]3(CC2)NC(=O)[C@H](C)NC(=O)C(=C)NC(=O)[C@H](C)NC(=O)[C@H]([C@@H](C)CC)N[C@@H]2C=Cc3c([C@H](C)O)cc(nc3[C@H]2O)C(=O)O[C@@H]4C)n1)C(N)=O [Thiostrepton]	–	9.91%	14.3%	I (otherwise these were reported as inactive (I))	–
Cc1cc(O)c(C=O)c2c1C(=O)Oc1c(C)c(O)c3c(c1O2)C(O)OC3=O (stereo not drawn) [Norstictic acid]	I (otherwise these were reported as inactive (I))	13.7%	12.1%	–	–
COC(=O)/C(=C1/OC(=O)C(c2ccccc2)=C1O)c1ccccc1 [Vulpinic acid]	–	8.02%	11.4%	I (otherwise these were reported as inactive (I))	–
C[C@@H]1C[C@H]2CC[C@H](O2)[C@H](C)C(=O)O[C@@H](C)C[C@@H]2CC[C@@H](O2)[C@@H](C)C(=O)O[C@H](C)C[C@H]2CC[C@H](O2)[C@H](C)C(=O)O[C@@H](C)C[C@@H]2CC[C@@H](O2)[C@@H](C)C(=O)O1 [Nonactin]	–	11.6%	12.1%	–	I (key: active (A) compounds having >25% inhibitory activity; otherwise these were reported as inactive (I))
O=C(c1cc(Cl)c(Cl)[nH]1)c1c(O)cccc1O [Pyoluteorin]	I (otherwise these were reported as inactive (I))	6.82%	7.19%	–	–
O=c1[nH]c2ccccc2c(-c2ccccc2)c1O [Viridicatin]	–	10.7%	15.1%	I (otherwise these were reported as inactive (I))	–
CC(C)=CCC[C@H](C)[C@H]1CC[C@]2(C)C[C@H]3[C@H](C(=O)C[C@@]3(C)O)/C(C=O)=C\C[C@@H]12 [Ophiobolin C]	A (active (A) compounds having >25% inhibitory activity)	13.1%	12.7%	–	–
Cc1nnc2n1-c1sc(CCC(=O)N3CCOCC3)cc1C(c1ccccc1Cl)=NC2 [WEB 2086]	–	9.91%	13.4%	I (otherwise these were reported as inactive (I))	–
CC=C1CN(C)C2Cc3c([nH]c4ccccc34)C(c3cc4[nH]c5c(c4cc3OC)CCN3CC4CC(CC)C3C5(C(=O)OC)C4)CC1C2C(=O)OC (stereo not drawn) [Voacamine]	–	9.44%	11.1%	I (otherwise these were reported as inactive (I))	–
CC[C@H]1C[C@@H]2CC[C@@H](O2)[C@@H](C)C(=O)O[C@H](C)C[C@H]2CC[C@H](O2)[C@H](C)C(=O)O[C@@H](C)C[C@@H]2CC[C@@H](O2)[C@@H](C)C(=O)O[C@H](C)C[C@H]2CC[C@H](O2)[C@H](C)C(=O)O1 [Monactin]	I (otherwise these were reported as inactive (I))	10%	10.7%	–	–
CC[C@H]1CC2CN3CCc4c([nH]c5ccc(OC)cc45)[C@](C(=O)OC)(C2)[C@H]13 (stereo in doubt) [Voacangine]	–	9.91%	13.7%	I (otherwise these were reported as inactive (I))	–
